Laboratory results reported in US20230192618A1, “CRYSTALLINE SALT FORMS OF N-(4-(4-(CYCLOPROPYLMETHYL)PIPERAZINE-1-CARBONYL)PHENYL)QUINOLINE-8-SULFONAMIDE” (Agios Pharmaceuticals, Inc., priority 2019, published 2023).
Each block holds one compound with its values, some of them ahead of it.

Assays:
[1] = Crystalline stability by XRPD after 7 days at 40° C./75% RH; format: physicochemical; details: for Crystalline Stability (XRPD pattern): after 7 days at 40° C./75% RH
Excerpt: (§1) The Rigaku Smart-Lab X-ray diffraction system was configured for reflection Bragg- Brentano geometry using a line source X-ray beam. The x-ray source was a Cu Long Fine Focus tube that was operated at 40 kV and 44 ma. That source provided an incident beam profile at the sample that changes from a narrow line at high angles to a broad rectangle at low angles. Beam conditioning slits were used on the line X-ray source to ensure that the maximum beam size was less than 10 mm both along the line and normal to the line. The Bragg-Brentano geometry was a para-focusing geometry controlled by passive divergence and receiving slits with the sample itself acting as the focusing component for the optics. The inherent resolution of Bragg-Brentano geometry was governed in part by the diffractometer radius and the width of the receiving slit used. Typically, the Rigaku Smart-Lab was operated to give peak widths of 0.1 °2θ or less. The axial divergence of the X-ray beam was controlled by 5.0-degree Soller slits in both the incident and diffracted beam paths.
(§2) Powder samples were prepared in a low background Si holder using light manual pressure to keep the sample surfaces flat and level with the reference surface of the sample holder. Each sample was analyzed from 2 to 40 °2θ using a continuous scan of 6 °2θ per minute with an effective step size of 0.02 °2θ.
(§3) The chemical purity analyzed by HPLC and crystalline stability by XRPD for each of the crystalline salt Forms A to M prepared according to the procedures described in Examples 1-13 are summarized in Table 14. In short, these salt forms all yielded a chemical purity higher than 99%.

[2] = Crystalline stability by XRPD after heating (removal of volatiles); format: physicochemical
Excerpt: as §1, §2, §3

Compound: O=C(c1ccc(NS(=O)(=O)c2cccc3cccnc23)cc1)N1CCN(CC2CC2)CC1 [Form G]
Crystalline Stability (XRPD pattern) ([1]; listed as Crystalline Hydrochloride Salt Form G): unique XRPD pattern after 7 days at 40° C./75% RH

Compound: O=C(c1ccc(NS(=O)(=O)c2cccc3cccnc23)cc1)N1CCN(CC2CC2)CC1 [Form K]
Crystalline Stability (XRPD pattern) ([1]; listed as Crystalline Phosphate Salt Form K): no change in XRPD pattern after 7 days at 40° C./75% RH

Compound: O=C(c1ccc(NS(=O)(=O)c2cccc3cccnc23)cc1)N1CCN(CC2CC2)CC1 [Form B]
Crystalline Stability (XRPD pattern) ([1]; listed as Crystalline Fumarate Salt Form B): no change in XRPD pattern after 7 days at 40° C./75% RH or after heating to 120 °C (removal of volatiles) | Crystalline Stability (XRPD pattern) ([2]; after heating to 120° C. (removal of volatiles)): no change in XRPD pattern after 7 days at 40° C./75% RH or after heating to 120 °C (removal of volatiles)

Compound: O=C(c1ccc(NS(=O)(=O)c2cccc3cccnc23)cc1)N1CCN(CC2CC2)CC1 [Form E]
Crystalline Stability (XRPD pattern) ([1]; listed as Crystalline Gentisate Salt Form E): significant changes in XRPD pattern after 7 days at 40° C./75% RH

Crystalline Stability (XRPD pattern) ([1]; listed as Crystalline Phosphate Salt Form J): additional peaks in XRPD pattern | Crystalline Stability (XRPD pattern) ([2]; after heating to 175° C. (removal of volatiles)): no change in XRPD pattern
Compound: O=C(c1ccc(NS(=O)(=O)c2cccc3cccnc23)cc1)N1CCN(CC2CC2)CC1 [Form J]

Compound: O=C(c1ccc(NS(=O)(=O)c2cccc3cccnc23)cc1)N1CCN(CC2CC2)CC1 [Form C]
Crystalline Stability (XRPD pattern) ([1]; listed as Crystalline Fumarate Salt Form C): no change in XRPD pattern after 7 days at 40° C./75% RH

Crystalline Stability (XRPD pattern) ([1]; listed as Crystalline Tartrate Salt Form L): unique XRPD pattern | Crystalline Stability (XRPD pattern) ([2]; after heating to 150° C. (removal of volatiles)): becomes non-crystalline
Compound: O=C(c1ccc(NS(=O)(=O)c2cccc3cccnc23)cc1)N1CCN(CC2CC2)CC1 [Form L]

Compound: O=C(c1ccc(NS(=O)(=O)c2cccc3cccnc23)cc1)N1CCN(CC2CC2)CC1 [Form M]
Crystalline Stability (XRPD pattern) ([1]; listed as Crystalline Tosylate Salt Form M): no change in XRPD pattern after 7 days at 40° C./75% RH

crystalline stability by XRPD ([1]; 7 days at elevated temperature and relative humidity (e.g., 40° C./75% RH)): maintained their original forms
Compound: O=C(c1ccc(NS(=O)(=O)c2cccc3cccnc23)cc1)N1CCN(CC2CC2)CC1 [Form A]
Crystalline Stability (XRPD pattern) ([1]; listed as Crystalline Besylate Salt FormA): no change in XRPD pattern after 7 days at 40° C./75% RH

Compound: O=C(c1ccc(NS(=O)(=O)c2cccc3cccnc23)cc1)N1CCN(CC2CC2)CC1 [Form I]
Crystalline Stability (XRPD pattern) ([1]; listed as Crystalline Malonate Salt Form I): no change in XRPD pattern after 7 days at 40° C./75% RH

Compound: O=C(c1ccc(NS(=O)(=O)c2cccc3cccnc23)cc1)N1CCN(CC2CC2)CC1 [Form D]
Crystalline Stability (XRPD pattern) ([1]; listed as Crystalline Gentisate Salt Form D): no change in XRPD pattern after 7 days at 40° C./75% RH

Compound: O=C(c1ccc(NS(=O)(=O)c2cccc3cccnc23)cc1)N1CCN(CC2CC2)CC1 [Form H]
Crystalline Stability (XRPD pattern) ([1]; listed as Crystalline Maleate Salt Form H): no change in XRPD pattern after 7 days at 40° C./75% RH

Compound: O=C(c1ccc(NS(=O)(=O)c2cccc3cccnc23)cc1)N1CCN(CC2CC2)CC1 [Form F]
Crystalline Stability (XRPD pattern) ([1]; listed as Crystalline Hydrochloride Salt Form F): no change in XRPD pattern after 7 days at 40° C./75% RH or after heating to 130 °C (removal of volatiles) | Crystalline Stability (XRPD pattern) ([2]; after heating to 130° C. (removal of volatiles)): no change in XRPD pattern after 7 days at 40° C./75% RH or after heating to 130 °C (removal of volatiles)
